Test results published in US20050107616A1, “Alpha-ketoamide derivatives as cathepsin k inhibitors” (priority 2001, published 2005).

What was measured:
human cathepsin L = human cathepsin L (Homo sapiens, UniProt P07711); test: Cathepsin L inhibition assay, fluorogenic substrate Cbz-Phe-Arg-AMC; assay type: biochemical; details: Table 2; enzyme from human liver tissue, pH 5.5, 30° C., 5 μM substrate; read-out: hCat L Ki
Description: (§1) All assays for cathepsin K were carried out with human and rat recombinant enzyme. Assays for cathepsins S Et V were also carried out with human recombinant enzyme. Assays for human cathepsins B. H. and L were carried out with enzyme, purchased from Athens Research and Technology, Inc., prepared from human liver tissue. Standard assay conditions for the determination of kinetic constants used a fluorogenic peptide substrate, typically (5S,8S)-13-amino-5-benzyl-13-imino-3-methylene-N-(4methyl-2-oxo-2H-chromen-7-yl)-6-oxo-1-phenyl-2-oxa-4,7,12-triazatridecane-8-carboxamide (Cbz-Phe-Arg-AMC), and were determined in 100 mM sodium acetate at pH 5.5 containing 10 mM dithiothreitol and 120 mM sodium chloride. A stock substrate solution of Cbz-Phe-Arg-AMC was prepared at a concentration of 50 mM in dimethyl sulfoxide. This substrate was diluted into the assay for a final substrate concentration of 10 μM in the rat cathepsin K, human cathepsin K, and human cathepsin B assays; a final substrate concentration of 5 μM in the human cathepsin L assay; and a final substrate concentration of 2 μM in the human cathepsin V assay.
(§2) All assays contained 10% dimethyl sulfoxide. […] All assays were conducted at 30° C. Product fluorescence (excitation at 360 nm; emission at 440 nm, (except cathepsin H which used excitation at 340 nm; emission at 420 nm)) was monitored with a PerSeptive Biosystems Cytofluor II fluorescence plate reader. Product progress curves were generated over 2.3 h monitoring the formation of 7-amino-4-methylcoumarin product (or β-naphthalamide for cathepsin H).
(§3) Potential inhibitors were evaluated using the progress curve method. Assays were carried out in the presence of variable concentrations of test compound. Reactions were initiated by addition of buffered solutions of inhibitor and substrate to enzyme. Data analysis was conducted according to one of two procedures depending on the appearance of the progress curves in the presence of inhibitors. For those compounds whose progress curves were linear, the enzymatic activity (RATE) was plotted against the concentration of test compound, including inhibitor concentration of zero ([I]=0), and the IC50 determined from a fit of equation 1 to the data, RATE=Vmax/(1+([I]/IC50)) (1) where Vmax is the best fit estimate of the maximal enzymatic activity. Ki values were calculated from IC50 values using equation 2 assuming a competitive model. [formula]

human cathepsin B = human cathepsin B (Homo sapiens, UniProt P07858); test: Cathepsin B inhibition assay, fluorogenic substrate Cbz-Phe-Arg-AMC; assay type: biochemical; details: Table 2; enzyme from human liver tissue, pH 5.5, 30° C., 10 μM substrate; read-out: hCat B Ki
Description: as §1, §2, §3

human cathepsin L, sequence (P07711 114-288 limits assumed): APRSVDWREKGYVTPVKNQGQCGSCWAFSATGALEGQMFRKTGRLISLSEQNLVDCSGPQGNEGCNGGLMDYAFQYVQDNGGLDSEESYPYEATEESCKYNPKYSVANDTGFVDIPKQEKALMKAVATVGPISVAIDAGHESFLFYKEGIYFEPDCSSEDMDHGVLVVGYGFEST
human cathepsin L, sequence (P07711 292-333 limits assumed): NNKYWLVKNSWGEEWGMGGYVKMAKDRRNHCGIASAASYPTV

Row | Structure (SMILES) | Ki (human cathepsin L) | Ki (human cathepsin B)
1 | CCCC[C@H](NC(=O)O[C@H](Cc1nnc(-c2ccc(F)cc2)o1)C(C)(C)C)C(=O)C(=O)Nc1ccnn1C (stereo in doubt) [Example 22, (1R)-1-{[5-(4-fluorophenyl)-1,3,4-oxadiazol-2-yl]methyl}-2,2-dimethylpropyl(1S)-1-[[(1-methyl-1H-pyrazol-5-yl)amino](oxo)acetyl]pentyl carbamate] | 100 to 10000 nM | 100 to 10000 nM
2 | CCCC[C@H](NC(=O)O[C@H](Cn1ccc(-c2ccc(C(F)(F)F)cc2)n1)C(C)(C)C)C(=O)C(=O)Nc1ccn[nH]1 [Example 1] | 1 to 100 nM | 1 to 100 nM
3 | CCCC[C@H](NC(=O)O[C@H](Cn1cnc(-c2ccc(C(F)(F)F)cc2)c1)C(C)(C)C)C(=O)C(=O)Nc1ccn[nH]1 [Example 7, (1S)-2,2-dimethyl-1-({4-[4-(trifluoromethyl)phenyl]-1H-imidazol-1-yl}methyl)propyl(1S)-1-[oxo(1H-pyrazol-5-ylamino)acetyl]pentylcarbamate] | 1 to 100 nM | 1 to 100 nM
4 | CCCC[C@H](NC(=O)O[C@H](Cn1cnc(-c2ccc(C(F)(F)F)cc2)c1)C(C)(C)C)C(=O)C(=O)Nc1ccnn1C1CCC1 [Example 35, (1S)-2,2-dimethyl-1-({4-[4-(trifluoromethyl)phenyl]-1H-imidazol-1-yl}methyl)propyl(1S)-1-[[(1-cyclobutyl-1H-pyrazol-5-yl)amino](oxo)acetyl]pentylcarbamate] | 100 to 10000 nM | 100 to 10000 nM
5 | CCCC[C@H](NC(=O)O[C@H](Cn1cnc2cc(Cl)c(Cl)cc21)C(C)(C)C)C(=O)C(=O)Nc1ccn[nH]1 [Example 37, (1S)-1-[(5,6-dichloro-1H-benzimidazol-1-yl)methyl]-2,2-dimethylpropyl(1S)-1-[oxo(1H-pyrazol-5-ylamino)acetyl]pentylcarbamate] | 0.01 to 1 nM | 1 to 100 nM
6 | CCCC[C@H](NC(=O)O[C@H](c1nnc(-c2ccc(C(F)(F)F)cc2)o1)C(C)(C)C)C(=O)C(=O)Nc1ccn[nH]1 [Example 38, (1S)-2,2-dimethyl-1-{5-[4-(trifluoromethyl)phenyl]-1,3,4-oxadiazol-2-yl}propyl(1S)-1-[oxo(1H-pyrazol-5-ylamino)acetyl]pentylcarbamate] | 1 to 100 nM | 1 to 100 nM
7 | CCCC[C@H](NC(=O)O[C@H](c1nnc(-c2ccc(C(F)(F)F)cc2)o1)C(C)(C)C)C(=O)C(=O)NN1CCOC1=O [Example 39, (1S)-2,2-dimethyl-1-{5-[4-(trifluoromethyl)phenyl]-1,3,4-oxadiazol-2-yl}propyl(1S)-1-{oxo[(2-oxo-1,3-oxazolidin-3-yl)amino]acetyl}pentylcarbamate] | 1 to 100 nM | 1 to 100 nM
